Active and inactive are the calls of the source. No cut-off for these calls is given here.
Tests used:
[1] = test system: HeLa; assay: Induction of cell cycle arrest in human HeLa cells assessed as reduction in Cdc2 expression at 10 to 1000 nM measured after 24 hrs by immunoblotting assay; format: functional, cell-based; details: dose 10-1000 nM
[2] = Metabolic stability in human liver microsomes assessed as parent compound remaining after 90 mins; format: ADME, Microsome; details: read-out: Stability
[3] = Metabolic stability in human liver microsomes assessed as parent compound remaining measured immediately after compound addition; format: ADME, Microsome; details: read-out: Stability
[4] = biological target: Tubulin; assay: Inhibition of tubulin polymerization (unknown origin) assessed as fluorescence intensity measured for 90 mins by DAPI based microplate reader; format: functional, Homo sapiens
[5] = test system: HeLa; assay: Induction of apoptosis in human HeLa cells assessed as increase in cleaved caspase 3 protein expression after 24 hrs by Western blot analysis; format: functional, cell-based; details: dose 10-1000 nM
[6] = test system: HeLa; assay: Induction of apoptosis in human HeLa cells assessed as late apoptotic cells at 10 nM incubated for 48 hrs by Annexin V and propidium iodide Staining based assay (reference value: 1 %); format: functional
[7] = test system: HeLa; assay: Induction of apoptosis in human HeLa cells assessed as reduction in Bcl-xl protein expression after 24 hrs by Western blot analysis; format: functional, cell-based; details: dose 10-1000 nM
[8] = test system: HeLa; assay: Induction of cell cycle arrest in human HeLa cells assessed as accumulation of cells at G2/M phase at 10 nM incubated for 24 hrs by propidium iodide staining based flow cytometry analysis; format: functional
[9] = Metabolic stability in human liver microsomes assessed as parent compound remaining after 60 mins; format: ADME, Microsome; details: read-out: Stability
[10] = test system: HeLa; assay: Induction of apoptosis in human HeLa cells assessed as late apoptotic cells at 25 nM incubated for 48 hrs by Annexin V and propidium iodide Staining based assay (reference value: 1 %); format: functional
[11] = biological target: Tubulin (Homo sapiens) (UniProt P68371+Q9H4B7+P0DPH7+P68366+Q13509+Q71U36+P04350+Q3ZCM7+P07437+P68363+Q9BQE3+Q6PEY2+Q13885+Q9BVA1+Q9BUF5); assay: Induction of microtubule disruption in human Hela cells assessed as fragmented and disassembled microtubule network in cytosol at 10 to 50 nM incubated for 24 hrs by AlexaFluor 488 dye/DAPI staining based immunofluorescence assay; format: cell-based; details: dose 10-50 nM
[12] = Metabolic stability in human liver microsomes assessed as half life; format: ADME, Microsome
[13] = test system: HeLa; assay: Induction of apoptosis in human HeLa cells assessed as necrotic cells at 10 nM incubated for 48 hrs by Annexin V and propidium iodide Staining based assay (reference value: 0.4%); format: functional
[14] = test system: HeLa; assay: Inhibition of cell migration in human HeLa cells at 25 nM incubated for 24 hrs by microscopy method relative to control; format: functional
[15] = test system: HeLa; assay: Antiproliferative activity against human HeLa assessed as reduction in cell viability measured after 48 hrs by MTT assay; format: functional, cell-based
[16] = test system: HeLa; assay: Induction of cell cycle arrest in human HeLa cells assessed as accumulation of cells at G2/M phase at 50 nM incubated for 24 hrs by propidium iodide staining based flow cytometry analysis; format: functional
[17] = test system: HeLa; assay: Inhibition of cell migration in human HeLa cells at 5 nM incubated for 24 hrs by microscopy method relative to control; format: functional
[18] = test system: HeLa; assay: Induction of apoptosis in human HeLa cells assessed as increase in cleaved-PARP 1 protein expression after 24 hrs by Western blot analysis; format: functional, cell-based; details: dose 10-1000 nM
[19] = test system: HeLa; assay: Induction of apoptosis in human HeLa cells assessed as early apoptotic cells at 10 nM incubated for 48 hrs by Annexin V and propidium iodide Staining based assay (reference value: 0.2%); format: functional
[20] = test system: HeLa; assay: Induction of cell cycle arrest in human HeLa cells assessed as reduction in Cdc25c expression at 10 to 1000 nM measured after 24 hrs by immunoblotting assay; format: functional, cell-based; details: dose 10-1000 nM
[21] = test system: HeLa; assay: Induction of apoptosis in human HeLa cells assessed as late apoptotic cells at 50 nM incubated for 48 hrs by Annexin V and propidium iodide Staining based assay (reference value: 1 %); format: functional
[22] = test system: HeLa; assay: Induction of apoptosis in human HeLa cells assessed as necrotic cells at 50 nM incubated for 48 hrs by Annexin V and propidium iodide Staining based assay (reference value: 0.4%); format: functional
[23] = test system: HeLa; assay: Induction of apoptosis in human HeLa cells assessed as viable cells at 25 nM incubated for 48 hrs by Annexin V and propidium iodide Staining based assay (reference value: 98.5 %); format: functional; details: read-out: Activity
[24] = Metabolic stability in human liver microsomes assessed as parent compound remaining after 30 mins; format: ADME, Microsome; details: read-out: Stability
[25] = test system: HeLa; assay: Induction of cell cycle arrest in human HeLa cells assessed as accumulation of cells at G2/M phase at 5 nM incubated for 24 hrs by propidium iodide staining based flow cytometry analysis; format: functional
[26] = test system: A549; assay: Antiproliferative activity against human A549 assessed as reduction in cell viability measured after 48 hrs by MTT assay; format: functional, cell-based; details: A549, 48 h
[27] = test system: HeLa; assay: Induction of apoptosis in human HeLa cells assessed as early apoptotic cells at 25 nM incubated for 48 hrs by Annexin V and propidium iodide Staining based assay (reference value: 0.2%); format: functional
[28] = test system: HeLa; assay: Induction of apoptosis in human HeLa cells assessed as early apoptotic cells at 50 nM incubated for 48 hrs by Annexin V and propidium iodide Staining based assay (reference value: 0.2%); format: functional
[29] = test system: HeLa; assay: Induction of apoptosis in human HeLa cells assessed as viable cells at 50 nM incubated for 48 hrs by Annexin V and propidium iodide Staining based assay (reference value: 98.5 %); format: functional; details: read-out: Activity
[30] = Metabolic stability in human liver microsomes assessed as parent compound remaining after 15 mins; format: ADME, Microsome; details: read-out: Stability
[31] = test system: HeLa; assay: Induction of apoptosis in human HeLa cells assessed as increase in bax protein expression after 24 hrs by Western blot analysis; format: functional, cell-based; details: dose 10-1000 nM
[32] = test system: HeLa; assay: Inhibition of cell migration in human HeLa cells at 10 nM incubated for 24 hrs by microscopy method relative to control; format: functional
[33] = test system: MCF7; assay: Antiproliferative activity against human MCF7 assessed as reduction in cell viability measured after 48 hrs by MTT assay; format: functional, cell-based; details: MCF7, 48 h
[34] = test system: HeLa; assay: Induction of apoptosis in human HeLa cells assessed as reduction in Bcl-2 protein expression after 24 hrs by Western blot analysis; format: functional, cell-based; details: dose 10-1000 nM
[35] = test system: HeLa; assay: Induction of apoptosis in human HeLa cells assessed as viable cells at 10 nM incubated for 48 hrs by Annexin V and propidium iodide Staining based assay (reference value: 98.5 %); format: functional; details: read-out: Activity
[36] = test system: HeLa; assay: Induction of apoptosis in human HeLa cells assessed as necrotic cells at 25 nM incubated for 48 hrs by Annexin V and propidium iodide Staining based assay (reference value: 0.4%); format: functional
[37] = test system: HeLa; assay: Induction of apoptosis in human HeLa cells assessed as increase in bad protein expression after 24 hrs by Western blot analysis; format: functional, cell-based; details: dose 10-1000 nM
[38] = test system: Tubulin beta; assay: Inhibition of beta-tubulin polymerization in human HeLa cells assessed as inhibition of EBI-beta-tubulin adduct formation measured by Western blot-based EBI competition assay; format: cell-based
[39] = test system: HeLa; assay: Induction of cell cycle arrest in human HeLa cells assessed as increase in cyclin B1 level at 10 to 1000 nM measured after 24 hrs by immunoblotting assay; format: functional, cell-based; details: dose 10-1000 nM
[40] = test system: HCT-116; assay: Antiproliferative activity against human HCT-116 assessed as reduction in cell viability measured after 48 hrs by MTT assay; format: functional, cell-based; details: HCT-116, 48 h

COc1cc(-c2nnc3c(OC)cc(-c4ccc5c(ccn5C)c4)cn23)cc(OC)c1OC
Activity [1]: Active
remaining at 1.5 h [2]: 30.1%
remaining at 0 min [3]: 100%
IC50 [4]: 1640 nM
Activity [5]: Dose-dependent effect
Activity [6]: 48.8%
Activity [7]: Dose-dependent effect
Activity [8]: 37.7%
remaining at 1 h [9]: 37.5%
Activity [10]: 54%
Activity [11]: Active
half-life [12]: 51.7 min
Activity [13]: 2.4%
inhibition at 0.025 µM [14]: 44.3%
IC50 [15]: 15 nM
Activity [16]: 77%
inhibition at 0.005 µM [17]: 22.1%
Activity [18]: Dose-dependent effect
Activity [19]: 7.1%
Activity [20]: Active
Activity [21]: 65.7%
Activity [22]: 2.6%
viability at 0.025 µM [23]: 31.2%
remaining at 0.5 h [24]: 55.5%
Activity [25]: 17.4%
IC50 [26]: 69 nM
Activity [27]: 11.1%
Activity [28]: 27.6%
viability at 0.05 µM [29]: 4.2%
remaining at 0.25 h [30]: 75.9%
Activity [31]: Dose-dependent effect
inhibition at 0.01 µM [32]: 32.2%
IC50 [33]: 49 nM
Activity [34]: Dose-dependent effect
viability at 0.01 µM [35]: 41.8%
Activity [36]: 3.6%
Activity [37]: Dose-dependent effect
IC50 [38]: Dose-dependent effect
Activity [39]: Active
IC50 [40]: 33 nM
